Experiments:
GlyR = details: full agonist, maximal current responses; cited from earlier work
α1 GlyR = biological target: T1, α1 GlyR (Homo sapiens, UniProt P23415); experiment: Two-electrode voltage-clamp whole-cell current recordings in X. laevis oocytes expressing α1 GlyR; assay type: cell-based
T1 construct: GFP (N); expressed in transfected cells; host or cells: Xenopus laevis oocytes (cRNA injection)
T1 sequence (P23415 29-457): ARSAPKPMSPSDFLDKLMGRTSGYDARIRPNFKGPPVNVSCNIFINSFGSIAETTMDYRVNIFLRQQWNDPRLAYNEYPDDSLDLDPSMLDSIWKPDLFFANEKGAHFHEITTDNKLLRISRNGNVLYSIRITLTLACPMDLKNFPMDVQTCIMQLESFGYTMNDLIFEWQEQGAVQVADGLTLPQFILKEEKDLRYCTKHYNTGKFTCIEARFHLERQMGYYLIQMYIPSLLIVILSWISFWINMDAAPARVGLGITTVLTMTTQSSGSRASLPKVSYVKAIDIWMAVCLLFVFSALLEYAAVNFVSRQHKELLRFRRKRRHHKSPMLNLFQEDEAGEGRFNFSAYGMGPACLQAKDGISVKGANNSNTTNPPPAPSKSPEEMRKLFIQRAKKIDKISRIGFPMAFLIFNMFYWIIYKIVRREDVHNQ

α1-GFP GlyR = biological target: T2, α1-GFP GlyR (Homo sapiens, UniProt P23415); experiment: MST of α1-GFP GlyR SMA-copolymer nanodiscs (total solubilized membranes) from X. laevis oocytes; assay type: binding; details: mean ± SEM, read-out: cEC50 (MST)
T2 construct: made in house; host or cells: Xenopus laevis oocytes injected with cRNA; total solubilized membranes in SMA nanodiscs
T2 sequence (P23415 29-457): T1 sequence (P23415 29-457)
Experimental: cRNA was synthesized using the AmpliCap-Max T7 High Yield Message Maker Kit (Cellscript, Madison, WI, USA). Therefore GFP-GlyR α1 in pCDNA3.1(+) was linearized with NotI. Oozytes were surgically taken from female X. laevis after anesthesia with 0.1% Tricaine in water. For SMA-copolymer solubilization, 300–400 oocytes were injected with 50 ng in a volume of 50.6 nl of cRNA. After injection the oocytes were incubated in ND-96 solution (96 mM NaCl, 2 mM KCl, 1 mM CaCl2, 1 mM MgCl2, 5 mM HEPES, pH 7.4) at 18 °C for 1–2 days.

EC50 (α1 GlyR; α1 GlyR expressed in X. laevis oocytes, clamped at −70 mV, mean ± SEM, read-out: aEC50 (electrophysiology)) | maximal current compared to glycine (α1 GlyR; α1 GlyR in X. laevis oocytes, normalized to maximum glycine currents, n = 3) | EC50 (α1-GFP GlyR) | Structure (SMILES) | opening times in single-channel recordings (GlyR)
– | – | – | NCC(=O)O [glycine] | 95–98%
843 ± 16 µM | 61% | 474 ± 66.1 µM | NCCS(=O)(=O)O [taurine] | –
